Results on 2 compounds are retold here after US20250114353A1, “Combination Treatment Regimens - SMARCA2 Degrader With Gemcitabine” (priority 2023, published 2025).

The test system of the experiment is NCI-H838 tumors. Kind of experiment: NCI-H838 tumor bearing mouse model (SMARCA4-deficient lung cancer xenograft), tumor growth inhibition. Type of experiment: in vivo. The note with it: NOD/SCID female mice, NCI-H838-#5 s.c. xenograft, versus vehicle.

Procedure: NOD/SCID female mice were inoculated subcutaneously with NCI-H838-#5 cells (5×10^6) into the right flank in PBS 0.1 ml mixed with Matrigel.
As used herein, tumor growth inhibition is calculated as follows: Mean % Inhibition=(mean(C)−mean(T))/mean(C)*100%, wherein C is the tumor volume in the control arm, and T is the tumor volume in the treatment arm.
The NCI-H838-#5 tumor cells are maintained in vitro with RPMI1640 medium supplemented with 10% fetal bovine serum at 37° C. in an atmosphere of 5% CO2 in air. The cells in exponential growth phase are harvested and quantitated by cell counter before tumor inoculation. NOD-SCID female mice are inoculated subcutaneously in the right front flank region with NCI-H838-#5 tumor cells (5×10^6) in 0.1 ml of PBS mixed with Matrigel (1:1) for tumor development. The randomization is performed when the mean tumor size reaches approximately 100-150 mm^3.
For the NCI-H838 CDX model, mice are inoculated subcutaneously with the NCI-H838 tumor cells (5×10^6).

`Nc1ccn([C@@H]2O[C@H](CO)[C@@H](O)C2(F)F)c(=O)n1` [gemcitabine, 4-amino-1-((2R,4R,5R)-3,3-difluoro-4-hydroxy-5-(hydroxymethyl)tetrahydrofuran-2-yl)pyrimidin-2(1H)-one]: the “tumor growth inhibition (TGI)” value (single agent gemcitabine 100 mg/kg i.v. BIW) is on record as “significant tumor growth inhibition”. On to `Cc1ncsc1-c1ccc([C@H](C)NC(=O)[C@@H]2C[C@@H](O)CN2C(=O)[C@@H](c2cc(O[C@@H](C)CN3CC[C@@H](N4CCN5c6cc(-c7ccccc7O)nnc6NC[C@H]5C4)C3)no2)C(C)C)cc1` [Formula (I)], for which, for the setting “single agent Formula (I) 100 mg/kg s.c. Q3D”, the “tumor growth inhibition (TGI)” value was “significantly inhibits the growth of NCI-H838 tumors”.
